# Laboratory results as given in patent publication US20050260711A1, “Modulating pH-sensitive binding using non-natural amino acids” (priority 2004, published 2005).
# What was measured:
# [1] = tested on: E. coli; assay: growth and Nal incorporation of E. coli expression host with added AZL; assay type: cell-based; conditions: AZL added to the medium
# Experimental: Incomplete occupancy of the UUG codon by Nal is due at least in part to competition with leucine-charged E. coli tRNA^LeuS. In an attempt to reduce competition by E. coli tRNA^LeuS, use of a mutant E. coli strain lacking tRNA^LeuCAA and addition of an E. coli leucyl-tRNA synthetase (LeuRS) inhibitor were tested. A Phe/Leu double auxotrophic strain derived from the tRNA^LeuCAA-deficient strain XA106 (CGSC at Yale) was tested for incorporation of Nal at the UUG codon.
# Peptide 5UUG/UUG (residues 26-35, […], SEQ ID NO: 8) contains two Leu residues encoded as UUG. Upon addition of Nal, the masses of these fragments shift in accord with the mass difference between Nal and Leu. Only Nal (a), Nal and 1 mM AZL (b) were supplemented into the media.
# [2] = target: E. coli LeuRS (Escherichia coli, UniProt P07813); conditions: in vitro; cited from earlier work
# Chain of E. coli LeuRS (P07813 whole entry): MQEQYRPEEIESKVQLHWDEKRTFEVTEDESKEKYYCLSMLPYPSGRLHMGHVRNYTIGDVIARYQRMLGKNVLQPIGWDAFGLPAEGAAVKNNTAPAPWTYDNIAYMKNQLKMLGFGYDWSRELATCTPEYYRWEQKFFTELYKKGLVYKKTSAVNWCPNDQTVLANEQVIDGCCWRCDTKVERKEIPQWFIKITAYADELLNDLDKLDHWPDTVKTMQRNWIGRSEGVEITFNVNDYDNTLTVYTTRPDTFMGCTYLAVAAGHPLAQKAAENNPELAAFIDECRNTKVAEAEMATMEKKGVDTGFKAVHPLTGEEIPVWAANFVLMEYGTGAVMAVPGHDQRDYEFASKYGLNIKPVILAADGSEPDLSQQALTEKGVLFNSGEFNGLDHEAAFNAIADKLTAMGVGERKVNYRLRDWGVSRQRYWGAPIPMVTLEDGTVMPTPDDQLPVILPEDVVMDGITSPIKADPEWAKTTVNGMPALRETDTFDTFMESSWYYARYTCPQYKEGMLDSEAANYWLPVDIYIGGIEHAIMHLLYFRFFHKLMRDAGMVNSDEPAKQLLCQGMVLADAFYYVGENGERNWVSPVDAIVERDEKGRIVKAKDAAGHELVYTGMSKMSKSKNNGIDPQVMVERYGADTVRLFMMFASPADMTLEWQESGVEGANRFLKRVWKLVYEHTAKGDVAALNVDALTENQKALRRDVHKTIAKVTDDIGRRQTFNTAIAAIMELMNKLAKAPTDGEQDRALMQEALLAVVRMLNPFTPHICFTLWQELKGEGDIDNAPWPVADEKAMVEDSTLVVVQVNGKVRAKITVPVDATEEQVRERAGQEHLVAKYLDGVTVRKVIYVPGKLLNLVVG
# [3] = cited from earlier work; for pKa (second of two pKa's): higher of the two pKa's of the side-chain moiety; for pKa (first of two pKa's): lower of the two pKa's of the side-chain moiety
# [4] = target: mu-yPheRS (modified yeast PheRS, Thr415Gly) (Saccharomyces cerevisiae, UniProt P15625, T415G); conditions: Nal versus Phe
# Chain of mu-yPheRS (modified yeast PheRS, Thr415Gly) (P15625 whole entry T415G): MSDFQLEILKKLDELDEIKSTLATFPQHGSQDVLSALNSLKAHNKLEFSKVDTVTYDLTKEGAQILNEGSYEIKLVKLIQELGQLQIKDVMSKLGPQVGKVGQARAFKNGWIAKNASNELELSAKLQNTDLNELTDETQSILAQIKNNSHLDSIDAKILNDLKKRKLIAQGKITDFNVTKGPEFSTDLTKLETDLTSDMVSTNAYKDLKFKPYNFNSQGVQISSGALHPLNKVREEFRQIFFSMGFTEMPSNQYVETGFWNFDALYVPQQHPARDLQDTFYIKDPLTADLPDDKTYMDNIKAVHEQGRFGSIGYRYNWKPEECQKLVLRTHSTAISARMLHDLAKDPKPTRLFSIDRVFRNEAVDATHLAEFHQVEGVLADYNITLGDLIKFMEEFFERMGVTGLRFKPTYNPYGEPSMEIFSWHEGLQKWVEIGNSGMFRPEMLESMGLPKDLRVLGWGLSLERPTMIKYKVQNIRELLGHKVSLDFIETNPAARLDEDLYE
# Chain of mu-yPheRS (modified yeast PheRS, Thr415Gly) (P15624 whole entry, further chain): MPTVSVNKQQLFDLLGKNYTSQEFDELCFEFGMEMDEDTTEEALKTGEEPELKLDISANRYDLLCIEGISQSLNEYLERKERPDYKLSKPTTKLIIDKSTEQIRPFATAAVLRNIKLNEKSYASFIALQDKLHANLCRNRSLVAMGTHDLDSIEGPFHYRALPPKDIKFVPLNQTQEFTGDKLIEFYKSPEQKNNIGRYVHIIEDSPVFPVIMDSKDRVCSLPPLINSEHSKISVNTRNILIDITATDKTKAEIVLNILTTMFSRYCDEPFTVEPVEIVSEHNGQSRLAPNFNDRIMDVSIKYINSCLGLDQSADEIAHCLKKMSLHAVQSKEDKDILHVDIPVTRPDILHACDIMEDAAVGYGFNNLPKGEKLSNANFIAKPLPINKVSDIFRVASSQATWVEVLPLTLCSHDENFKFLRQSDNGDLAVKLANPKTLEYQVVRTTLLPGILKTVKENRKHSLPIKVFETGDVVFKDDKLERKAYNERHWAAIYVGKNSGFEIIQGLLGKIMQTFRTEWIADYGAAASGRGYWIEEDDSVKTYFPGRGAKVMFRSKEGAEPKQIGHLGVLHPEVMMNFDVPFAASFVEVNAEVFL
# Experimental: The modified yeast PheRS (mu-yPheRS) was prepared by introduction of a Thr415Gly mutation in the α-subunit of the synthetase (Datta et al., J. Am. Chem. Soc. 124: 5652, 2002). The kinetics of activation of Nal and Phe by mu-yPheRS were analyzed in vitro via the pyrophosphate exchange assay.
# [5] = target: leucine zipper c-MYC-MAX heterodimer (Homo sapiens, UniProt P01106+P61244); conditions: histidine at the center of c-MYC-MAX leucine zipper; cited from earlier work
# Chain of leucine zipper c-MYC-MAX heterodimer (P01106 428-449 limits assumed): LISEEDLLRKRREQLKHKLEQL
# Chain of leucine zipper c-MYC-MAX heterodimer (P61244 81-102 limits assumed): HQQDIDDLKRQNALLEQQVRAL
smiles,measurement,setting,value
"CN(C)CC(N)C(=O)O (racemic) [AZL, 4-Aza-DL-leucine]",growth rate of the host,[1],reduced the growth rate
same,occupancy of the UUG codon by Nal,[1]; mDHFR expression,enhanced occupancy
same,inhibition of E. coli LeuRS,[2],competitive inhibitor
N[C@@H](Cc1c[nH]c(F)n1)C(=O)O [2-fluoro-histidine],pKa (second of two pKa's),[3],11.5
same,pKa (first of two pKa's),[3],4.0
"N[C@@H](Cc1ccc2ccccc2c1)C(=O)O [Nal, L-3-(2-naphthyl)alanine]",kcat/KM relative to that for Phe,[4],8 fold
N[C@@H](Cc1c[nH]cn1)C(=O)O [histidine],"histidine pKa, experimental value",[5],7.19
same,pKa (second of two pKa's),[3],14.52
same,pKa (first of two pKa's),[3],7.05
